Results as given in patent publication US11608323B2 (SYNGENTA LIMITED, priority 2013, dated 2023).

How the values were obtained:
Assay type in all cases: in vivo
[1] = tested on: AMARE; experiment: Pre-emergence herbicidal activity, glasshouse pot test; settings: rate 1000 g/Ha, evaluated after 13 days, scale 0-5
Protocol: (§1) Seeds of a variety of test species were sown in standard soil in pots. After cultivation for one day (pre-emergence) under controlled conditions in a glasshouse (at 24/16° C., day/night; 14 hours light; 65% humidity), the plants were sprayed with an aqueous spray solution derived from the formulation of the technical active ingredient in acetone/water (50:50) solution containing 0.5% Tween 20 (polyoxyethelyene sorbitan monolaurate, CAS RN 9005-64-5). The test plants were then grown in a glasshouse under controlled conditions (at 24/16° C., day/night; 14 hours light; 65% humidity) and watered twice daily. After 13 days, the test was evaluated (5=total damage to plant; 0=no damage to plant).

[2] = tested on: ABUTH; experiment: as above; settings: rate 1000 g/Ha, evaluated after 13 days, scale 0-5
Protocol: as §1

[3] = tested on: ZEAMX; experiment: as above; settings: rate 1000 g/Ha, evaluated after 13 days, scale 0-5
Protocol: as §1

[4] = tested on: SETFA; experiment: as above; settings: rate 1000 g/Ha, evaluated after 13 days, scale 0-5
Protocol: as §1

[5] = tested on: ECHCG; experiment: as above; settings: rate 1000 g/Ha, evaluated after 13 days, scale 0-5
Protocol: as §1

[6] = tested on: AMARE; experiment: Post-emergence herbicidal activity, glasshouse pot test; settings: Amaranthus retroflexus; application post-emergence; rate 1000 g/Ha; evaluated after 13 days
Protocol: (§2) Seeds of a variety of test species were sown in standard soil in pots. After 8 days cultivation (post-emergence) under controlled conditions in a glasshouse (at 24/16° C., day/night; 14 hours light; 65% humidity), the plants were sprayed with an aqueous spray solution derived from the formulation of the technical active ingredient in acetone/water (50:50) solution containing 0.5% Tween 20 (polyoxyethelyene sorbitan monolaurate, CAS RN 9005-64-5). The test plants were then grown in a glasshouse under controlled conditions (at 24/16° C., day/night; 14 hours light; 65% humidity) and watered twice daily. After 13 days, the test was evaluated (5=total damage to plant; 0=no damage to plant).

[7] = tested on: ABUTH; experiment: as above; settings: Abutilon theophrasti; application post-emergence; rate 1000 g/Ha; evaluated after 13 days
Protocol: as §2

[8] = tested on: ZEAMX; experiment: as above; settings: Zea mays; application post-emergence; rate 1000 g/Ha; evaluated after 13 days
Protocol: as §2

[9] = tested on: SETFA; experiment: as above; settings: Setaria faberi; application post-emergence; rate 1000 g/Ha; evaluated after 13 days
Protocol: as §2

[10] = tested on: ECHCG; experiment: as above; settings: Echinochloa crus-galli; application post-emergence; rate 1000 g/Ha; evaluated after 13 days
Protocol: as §2

Compound | AMARE damage score, application pre-emergence [1] | ABUTH damage score, application pre-emergence [2] | ZEAMX damage score, application pre-emergence [3] | SETFA damage score, application pre-emergence [4] | ECHCG damage score, application pre-emergence [5] | Post-emergence herbicidal activity AMARE (damage score 0-5) [6] | Post-emergence herbicidal activity ABUTH (damage score 0-5) [7] | Post-emergence herbicidal activity ZEAMX (damage score 0-5) [8] | Post-emergence herbicidal activity SETFA (damage score 0-5) [9] | Post-emergence herbicidal activity ECHCG (damage score 0-5) [10]
C[C@@H]1C(O)N(c2cc(C(F)(F)F)ccn2)C(=O)N1C (mixture of isomers) [Compound A38, (4R,5R)-4-hydroxy-1,5-dimethyl-3-[4-(trifluoromethyl)-2-pyridyl]imidazolidin-2-one and (4S,5R)-4-hydroxy-1,5-dimethyl-3-[4-(trifluoromethyl)-2-pyridyl]imidazolidin-2-one] | 5 | 5 | 3 | 5 | 5 | 5 | 5 | 4 | 5 | 5
CCO[C@@H]1C(O)N(c2cc(C(F)(F)F)ccn2)C(=O)N1C (single isomer, unassigned) [Compound A34] | 5 | 5 | 3 | 5 | 5 | 5 | 5 | 4 | 5 | 5
CCO[C@H]1C(O)N(c2cc(C(F)(F)F)ccn2)C(=O)N1C (single isomer, unassigned) [Compound A35] | 5 | 4 | 2 | 4 | 4 | 5 | 0 | 1 | 3 | 3
CC1C(O)N(c2cc(C(F)(F)C(F)(F)F)ccn2)C(=O)N1C (single isomer, unassigned) [Compound A72] | 5 | 5 | 2 | 5 | 5 | 5 | 5 | 2 | 5 | 5
CON1C(=O)N(c2cc(C(C)(F)F)ccn2)C(O)C1C (single isomer, unassigned) [Compound A93] | 5 | 5 | 3 | 5 | 5 | 5 | 5 | 4 | 5 | 5
O=C1N2COCC2C(O)N1c1cc(C(F)(F)F)ccn1 (single isomer, unassigned) [Compound A94] | 5 | 5 | 4 | 5 | 5 | 5 | 5 | 5 | 5 | 5
C=CC1C(O)N(c2cc(C(F)(F)F)ccn2)C(=O)N1C (centres unmarked) [Compound A31] | 5 | 5 | 2 | 5 | 5 | 5 | 5 | 4 | 5 | 5
C=Cc1cnc(N2C(=O)N(C)C(C)C2O)cc1C(F)(F)F (centres unmarked) [Compound A62] | 5 | 4 | 2 | 3 | 4 | 5 | 5 | 2 | 5 | 5
CC1C(O)N(c2cc(C(F)(F)F)ccn2)C(=O)N1O (centres unmarked) [Compound A64] | 5 | 2 | 2 | 3 | 4 | 5 | 4 | 1 | 4 | 5
CC1C(O)N(c2cc(C(F)(F)F)c(C(=O)NC(C)(C)C)cn2)C(=O)N1C (centres unmarked) [Compound A65] | 5 | 5 | 3 | 5 | 5 | 5 | 5 | 5 | 5 | 5
CON1C(=O)N(c2ccc(C(=O)NC(C)(C)C)cn2)C(O)C1C (centres unmarked) [Compound A66] | 5 | 5 | 2 | 4 | 5 | 5 | 5 | 5 | 5 | 5
CC1C(O)N(c2ccc(C(=O)NC(C)(C)C)cn2)C(=O)N1C (centres unmarked) [Compound A67] | 5 | 5 | 3 | 5 | 5 | 5 | 5 | 4 | 5 | 5
CN1C(=O)N(c2cc(C(F)(F)F)ccn2)C(O)C1CC(F)(F)F (centres unmarked) [Compound A68] | 0 | 0 | 0 | 0 | 0 | 0 | 0 | 0 | 0 | 0
CCOC1C(O)N(c2cc(Cl)c(C(=O)NC(C)(C)C)cn2)C(=O)N1C (centres unmarked) [Compound A69] | 5 | 5 | 2 | 5 | 5 | 4 | 5 | 3 | 4 | 5
